Results: US4760201A (Exxon Research & Engineering Co., priority 1986, dated 1988)
Values joined by “and” are separate entries in the source; they are usually repeats but may differ in a detail not shown here. Identical values can stand only once. Like-named read-outs stand apart in the source and are kept apart here.

Tests used:
[1] = Experimental: The liquids thus passed to the extraction unit were preheated each to a temperature of 60° C. The reciprocating plate column was provided with a hot water heating jacket maintained at 60° C. […] The liquids thereby accumulated were each analyzed by gas chromatography and nuclear magnetic resonance spectroscopy (NMR) for component identification.
[2] = Batch extraction of sec-butyl alcohol (SBA) from acid/alcohol feedstream by aliphatic acids; SBA in light phase; format: physicochemical; conditions: ES 0.5, AS 56.7%
Text: Thereafter, the thus-formed acid/alcohol […] contacted with the selected amount of a carboxylic acid solvent of this invention, and the results thereby obtained are reported in the associated tables below.

[3] = Effect of solvent/feed ratio on selectivity of extraction (H2O/SBA in upper layer); conditions: 25° C., AS 56.7%, ES 0.5
[4] = Partitioning of alcohol into neodecanoic acid from sulfuric acid/alcohol feedstreams (Examples 14-21); conditions: AS 60%, 60° C.
[5] = Comparative runs: partitioning of SBOH and water into neodecanoic acid from aqueous sec-butanol free of sulfuric acid

O [Water, water]
Overall Partition Coefficients, Wt. Fract. (concentration in light phase / in heavy phase) [1]: 0.012

CCCCCCCC(=O)O [octanoic acid]
SBA in Light Phase ([2]; Run 8-1, 60 °C, v:v solvent:feed 1.0): 9.91 wt. %
SBA in Light Phase ([2]; Run 8-2, 60 °C, v:v solvent:feed 2.0): 7.20 wt. %
SBA in Light Phase ([2]; Run 8-3, 25 °C, v:v solvent:feed 0.2): 7.38 wt. %
SBA in Light Phase ([2]; Run 8-4, 25 °C, v:v solvent:feed 0.4): 7.57 wt. %
SBA in Light Phase ([2]; Run 8-5, 25 °C, v:v solvent:feed 1.0): 6.15 wt. %
SBA in Light Phase ([2]; Run 8-6, 25 °C, v:v solvent:feed 1.5): 5.37 wt. %
SBA in Light Phase ([2]; Run 8-7, 25 °C, v:v solvent:feed 2.0): 4.54 wt. %
SBA in Light Phase ([2]; Table 9, 25 °C, vol:vol 1.0:1): 6.15 wt. %
SBA in Light Phase ([2]; Table 9, 60 °C, vol:vol 1.0:1): 9.91 wt. %
selectivity of extraction [3]: increasing amounts of water being removed
wt:wt. ratio H2O/SBA In Upper Layer ([3]; solvent/feed 0.2 (v/v)): 0.066 wt:wt and 0.079 wt:wt
wt:wt. ratio H2O/SBA In Upper Layer ([3]; solvent/feed 0.4 (v/v)): 0.055 wt:wt
wt:wt. ratio H2O/SBA In Upper Layer ([3]; solvent/feed 1.0 (v/v)): 0.067 wt:wt
wt:wt. ratio H2O/SBA In Upper Layer ([3]; solvent/feed 2.0 (v/v)): 0.101 wt:wt

CC(C)(C)CCC(=O)O [neoheptanoic acid]
SBA in Light Phase ([2]; Table 9, 25 °C, vol:vol 1.0:1): 5.04 wt. %
SBA in Light Phase ([2]; Table 9, 60 °C, vol:vol 1.0:1): 7.82 wt. %
selectivity of extraction [3]: high selectivity for alcohol extraction
wt:wt. ratio H2O/SBA In Upper Layer ([3]; solvent/feed 0.4 (v/v)): 0.099 wt:wt
wt:wt. ratio H2O/SBA In Upper Layer ([3]; solvent/feed 1.0 (v/v)): 0.054 wt:wt
wt:wt. ratio H2O/SBA In Upper Layer ([3]; solvent/feed 1.5 (v/v)): 0.045 wt:wt
wt:wt. ratio H2O/SBA In Upper Layer ([3]; solvent/feed 2.0 (v/v)): 0.067 wt:wt

CCC(C)OC(C)CC (stereo not drawn) [SBE, secondary butyl ether]
Overall Partition Coefficients, Wt. Fract. (concentration in light phase / in heavy phase) [1]: 81.2

CCC(C)O (stereo not drawn) [SBOH, sec-butyl alcohol]
Overall Partition Coeff. SBOH ([4]; Example 14, ES 0.2, NDA/SBOH 15.6): 0.3
Overall Partition Coeff. SBOH ([4]; Example 15, ES 0.2, NDA/SBOH 3.9): 0.35
Overall Partition Coeff. SBOH ([4]; Example 16, ES 0.2, NDA/SBOH 7.9): 0.33
Overall Partition Coeff. SBOH ([4]; Example 17, ES 0.2, NDA/SBOH 23.2): 0.31
Overall Partition Coeff. SBOH ([4]; Example 18, ES 0.2, NDA/SBOH 4.7): 1.35
Overall Partition Coeff. SBOH ([4]; Example 19, ES 1.0, NDA/SBOH 1.3): 0.25
Overall Partition Coeff. SBOH ([4]; Example 20, ES 1.0, NDA/SBOH 2.6): 0.24
Overall Partition Coeff. SBOH ([4]; Example 21, ES 1.0, NDA/SBOH 7.9): 0.34
Overall Partition Coeff. SBOH ([5]; Comparative Example I, 25° C., start SBOH 47.8 wt %): 4.1
Overall Partition Coeff. SBOH ([5]; Comparative Example II, 25° C., start SBOH 7.3 wt %): 2.2
Overall Partition Coeff. SBOH ([5]; Comparative Example III, 25° C., start SBOH 63.9 wt %): 4.0
Overall Partition Coeff. SBOH ([5]; Comparative Example IV, 25° C., start SBOH 13.9 wt %): 2.2
Overall Partition Coeff. SBOH ([5]; Comparative Example IX, 60° C., start SBOH 28.3 wt %): 6.0
Overall Partition Coeff. SBOH ([5]; Comparative Example V, 60° C., start SBOH 45.3 wt %): 6.0
Overall Partition Coeff. SBOH ([5]; Comparative Example VI, 60° C., start SBOH 7.4 wt %): 4.4
Overall Partition Coeff. SBOH ([5]; Comparative Example VII, 60° C., start SBOH 61.7 wt %): 6.4
Overall Partition Coeff. SBOH ([5]; Comparative Example VIII, 60° C., start SBOH 13.5 wt %): 4.5
Overall Partition Coefficients, Wt. Fract. (concentration in light phase / in heavy phase) ([1]; Table 1, residence time 3.52 hours, solvent-to-feed 2.04:1, E.S. 1, A.S. 55%, 60° C.): 1.26
Overall Partition Coefficients, Wt. Fract. (concentration in light phase / in heavy phase) ([1]; Table 2, residence time 3.62, solvent-to-feed 2.098:1, E.S. 1, A.S. 55%, 60° C.): 0.83
Overall Partition Coefficients, Wt. Fract. (concentration in light phase / in heavy phase) ([1]; Table 3, residence time 3.66 hours, solvent-to-feed 2.043:1, E.S. 1, A.S. 55%, 60° C.): 1.15
Overall Partition Coefficients, Wt. Fract. (concentration in light phase / in heavy phase) ([1]; Table 4, residence time 3.66 hrs, solvent-to-feed 2.11:1, solvent feed temp. 30° C., E.S. 1, A.S. 55%, 60° C.): 4.51
Overall Partition Coefficients, Wt. Fract. (concentration in light phase / in heavy phase) ([1]; Table 5, residence time 3.37 hrs, solvent-to-feed 1.23:1, E.S. 1, A.S. 55%, 60° C.): .627
Overall Partition Coefficients, Wt. Fract. (concentration in light phase / in heavy phase) ([1]; Table 6, residence time 3.60 hrs, solvent-to-feed 2.06:1, E.S. 1, A.S. 60%, 60° C.): 0.340
Overall Partition Coefficients, Wt. Fract. (concentration in light phase / in heavy phase) ([1]; Table 7, residence time 3.77 hrs, solvent-to-feed 1.38:1, E.S. 1, A.S. 60 wt. %, 60° C.): 0.267

butene
Overall Partition Coefficients, Wt. Fract. (concentration in light phase / in heavy phase) [1]: > 2000
